PubChem BioAssay (NCI)
Several values for one entry are separate records, joined by “and”; a condition that tells them apart may be missing. Equal entries are not always repeated.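 Cells were grown in 96-well plates and exposed to each compound for 48 hours at five concentrations; endpoints were interpolated linearly between bracketing concentrations, or set to the highest concentration if not reached. GI50 = concentration required for 50% inhibition of growth. TGI marks complete inhibition of growth.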

What was measured:
Test in all cases: growth of human tumour cells (NCI), 48 h; in the data active = GI50 below about 0.43 µM; inactive = the rest
MOLT-4 leukemia = system: MOLT-4 leukemia
HOP-62 NSCLC = system: HOP-62 NSCLC
HT29 colon = system: HT29 colon
UO-31 renal = system: UO-31 renal
SF-295 CNS = system: SF-295 CNS
KM20L2 colon = system: KM20L2 colon
NCI-H522 lung = system: NCI-H522 lung
SNB-78 CNS = system: SNB-78 CNS
SR leukemia = system: SR leukemia
MALME-3M melanoma = system: MALME-3M melanoma
M19-MEL melanoma = system: M19-MEL melanoma
DLD-1 colon = system: DLD-1 colon
K-562 leukemia = system: K-562 leukemia
HL-60(TB) leukemia = system: HL-60(TB) leukemia
SK-MEL-28 melanoma = system: SK-MEL-28 melanoma
HCT-116 colon = system: HCT-116 colon
HCT-15 colon = system: HCT-15 colon
TK-10 renal = system: TK-10 renal
UACC-257 melanoma = system: UACC-257 melanoma
HOP-92 NSCLC = system: HOP-92 NSCLC
DMS 114 small cell lung = system: DMS 114 small cell lung
SF-268 CNS = system: SF-268 CNS
RPMI-8226 leukemia = system: RPMI-8226 leukemia
786-0 renal = system: 786-0 renal
DMS 273 small cell lung = system: DMS 273 small cell lung
SK-OV-3 ovarian = system: SK-OV-3 ovarian
COLO 205 colon = system: COLO 205 colon
OVCAR-5 ovarian = system: OVCAR-5 ovarian
SK-MEL-2 melanoma = system: SK-MEL-2 melanoma
CAKI-1 renal = system: CAKI-1 renal
SK-MEL-5 melanoma = system: SK-MEL-5 melanoma
NCI-H226 lung = system: NCI-H226 lung
CCRF-CEM leukemia = system: CCRF-CEM leukemia
U251 CNS = system: U251 CNS
NCI-H460 lung = system: NCI-H460 lung
SN12C renal = system: SN12C renal
RXF 393 renal = system: RXF 393 renal
SW-620 colon = system: SW-620 colon
SF-539 CNS = system: SF-539 CNS
A549 NSCLC = system: A549 NSCLC
OVCAR-3 ovarian = system: OVCAR-3 ovarian
M14 melanoma = system: M14 melanoma
OVCAR-4 ovarian = system: OVCAR-4 ovarian
NCI-H23 lung = system: NCI-H23 lung
SNB-75 CNS = system: SNB-75 CNS
LOX IMVI melanoma = system: LOX IMVI melanoma
KM12 colon = system: KM12 colon
OVCAR-8 ovarian = system: OVCAR-8 ovarian
IGROV1 ovarian = system: IGROV1 ovarian
UACC-62 melanoma = system: UACC-62 melanoma
ACHN renal = system: ACHN renal
LXFL 529 NSCLC = system: LXFL 529 NSCLC
HOP-18 NSCLC = system: HOP-18 NSCLC
DU-145 prostate = system: DU-145 prostate
PC-3 prostate = system: PC-3 prostate
MCF7 breast = system: MCF7 breast
NCI/ADR-RES ovarian = system: NCI/ADR-RES ovarian
MDA-MB-231 breast = system: MDA-MB-231 breast
EKVX NSCLC = system: EKVX NSCLC
HS 578T breast = system: HS 578T breast
BT-549 breast = system: BT-549 breast
A498 renal = system: A498 renal
MDA-N = system: MDA-N
SNB-19 CNS = system: SNB-19 CNS
T-47D breast = system: T-47D breast
MDA-MB-435 = system: MDA-MB-435
HCC-2998 colon = system: HCC-2998 colon
RXF-631 renal = system: RXF-631 renal

CC(=O)Nc1ccc(-c2nnc(SCC(=O)Nc3ccc(C)cc3)o2)cc1
32.6 µM: TGI (OVCAR-4 ovarian)
30 µM: TGI (HCT-15 colon) | TGI (SN12C renal)
70.8 µM: TGI (OVCAR-8 ovarian)
70.3 µM: TGI (ACHN renal)
30.1 µM: TGI (DMS 273 small cell lung)
33.2 µM: TGI (RXF 393 renal)
44.2 µM: TGI (SF-268 CNS)
29.1 µM: TGI (HCT-116 colon)
35.5 µM: TGI (SF-295 CNS)
31.3 µM: TGI (HOP-18 NSCLC)
27.3 µM: TGI (SF-539 CNS)
74.7 µM: TGI (RPMI-8226 leukemia)
98.2 µM: TGI (SR leukemia)
42.7 µM: TGI (NCI-H460 lung)
31.1 µM: TGI (HT29 colon)
52.4 µM: TGI (NCI-H226 lung)
37.2 µM: TGI (OVCAR-3 ovarian)
24.9 µM: TGI (CAKI-1 renal)
30.8 µM: TGI (MALME-3M melanoma)
39.8 µM: TGI (OVCAR-5 ovarian)
31.4 µM: TGI (SK-MEL-28 melanoma)
42 µM: TGI (UACC-257 melanoma)
34.4 µM: TGI (SK-MEL-2 melanoma)
64.4 µM: TGI (HL-60(TB) leukemia)
33.3 µM: TGI (SW-620 colon)
31.8 µM: TGI (LOX IMVI melanoma)
31.6 µM: TGI (COLO 205 colon)
29.8 µM: TGI (M14 melanoma)
30.5 µM: TGI (LXFL 529 NSCLC)
27.8 µM: TGI (SK-MEL-5 melanoma)
32.9 µM: TGI (M19-MEL melanoma)
58.6 µM: TGI (SNB-75 CNS)
33.6 µM: TGI (U251 CNS)
53.6 µM: TGI (TK-10 renal)
> 100 µM: TGI (MOLT-4 leukemia) | TGI (HOP-62 NSCLC) | TGI (UO-31 renal) | TGI (K-562 leukemia) | TGI (SK-OV-3 ovarian) | TGI (CCRF-CEM leukemia) | TGI (A549 NSCLC)
36.5 µM: TGI (KM20L2 colon)
28.2 µM: TGI (DMS 114 small cell lung)
30.2 µM: TGI (DLD-1 colon)
34.7 µM: TGI (SNB-78 CNS)
37.8 µM: TGI (KM12 colon)
33 µM: TGI (NCI-H522 lung)
28.6 µM: TGI (IGROV1 ovarian)
33.4 µM: TGI (HOP-92 NSCLC) | TGI (786-0 renal)
29.6 µM: TGI (NCI-H23 lung)
30.7 µM: TGI (UACC-62 melanoma)

Oc1ccc2ccccc2c1N=Nc1ccccc1
inactive: GI50 (SF-295 CNS) 39.6 µM and > 90.3 µM | GI50 (EKVX NSCLC) 15.5 µM and > 62.4 µM | GI50 (SF-268 CNS) 25 µM and > 63.8 µM | GI50 (786-0 renal) 35.4 µM and > 100 µM | GI50 (T-47D breast) 22.5 µM and > 100 µM | GI50 (KM12 colon) 4.95 µM and 32.4 µM
> 100 µM: TGI (MOLT-4 leukemia) | TGI (HOP-62 NSCLC) | TGI (HT29 colon) | TGI (DU-145 prostate) | TGI (UO-31 renal) | TGI (SF-295 CNS) | TGI (NCI-H522 lung) | TGI (SR leukemia) | TGI (MALME-3M melanoma) | TGI (PC-3 prostate) | TGI (K-562 leukemia) | TGI (HL-60(TB) leukemia) | TGI (SK-MEL-28 melanoma) | TGI (HCT-116 colon) | TGI (HCT-15 colon) | TGI (MCF7 breast) | TGI (NCI/ADR-RES ovarian) | TGI (TK-10 renal) | TGI (UACC-257 melanoma) | TGI (HOP-92 NSCLC) | TGI (MDA-MB-231 breast) | TGI (EKVX NSCLC) | TGI (SF-268 CNS) | TGI (HS 578T breast) | TGI (RPMI-8226 leukemia) | TGI (786-0 renal) | TGI (BT-549 breast) | TGI (SK-OV-3 ovarian) | TGI (COLO 205 colon) | TGI (OVCAR-5 ovarian) | TGI (SK-MEL-2 melanoma) | TGI (CAKI-1 renal) | TGI (SK-MEL-5 melanoma) | TGI (A498 renal) | TGI (NCI-H226 lung) | TGI (CCRF-CEM leukemia) | TGI (MDA-N) | TGI (U251 CNS) | TGI (NCI-H460 lung) | TGI (SN12C renal) | TGI (SNB-19 CNS) | TGI (T-47D breast) | TGI (RXF 393 renal) | TGI (SW-620 colon) | TGI (SF-539 CNS) | TGI (A549 NSCLC) | TGI (OVCAR-3 ovarian) | TGI (M14 melanoma) | TGI (MDA-MB-435) | TGI (OVCAR-4 ovarian) | TGI (NCI-H23 lung) | TGI (SNB-75 CNS) | TGI (LOX IMVI melanoma) | TGI (KM12 colon) | TGI (OVCAR-8 ovarian) | TGI (IGROV1 ovarian) | TGI (UACC-62 melanoma) | TGI (ACHN renal) | TGI (HCC-2998 colon)

CC(C)(C)OC(=O)N1N=NC2C3CC(=O)C(O3)C21 (stereo unspecified)
> 100 µM: TGI (MOLT-4 leukemia) | TGI (UO-31 renal) | TGI (SF-295 CNS) | TGI (KM20L2 colon) | TGI (NCI-H522 lung) | TGI (SR leukemia) | TGI (MALME-3M melanoma) | TGI (DLD-1 colon) | TGI (K-562 leukemia) | TGI (TK-10 renal) | TGI (HOP-92 NSCLC) | TGI (RXF-631 renal) | TGI (EKVX NSCLC) | TGI (RPMI-8226 leukemia) | TGI (786-0 renal) | TGI (DMS 273 small cell lung) | TGI (CAKI-1 renal) | TGI (SK-MEL-5 melanoma) | TGI (A498 renal) | TGI (CCRF-CEM leukemia) | TGI (NCI-H460 lung) | TGI (SN12C renal) | TGI (RXF 393 renal) | TGI (SW-620 colon) | TGI (SF-539 CNS) | TGI (A549 NSCLC) | TGI (OVCAR-3 ovarian) | TGI (M14 melanoma) | TGI (OVCAR-8 ovarian) | TGI (IGROV1 ovarian) | TGI (ACHN renal) | TGI (LXFL 529 NSCLC) | TGI (HOP-18 NSCLC)

CCOC(=O)C(C)(C)Oc1ccc2c(-c3ccc(Cl)cc3)cc(=O)oc2c1
> 100 µM: TGI (MOLT-4 leukemia) | TGI (HOP-62 NSCLC) | TGI (HT29 colon) | TGI (UO-31 renal) | TGI (SF-295 CNS) | TGI (KM20L2 colon) | TGI (SR leukemia) | TGI (MALME-3M melanoma) | TGI (M19-MEL melanoma) | TGI (DLD-1 colon) | TGI (K-562 leukemia) | TGI (HL-60(TB) leukemia) | TGI (SK-MEL-28 melanoma) | TGI (HCT-116 colon) | TGI (HCT-15 colon) | TGI (TK-10 renal) | TGI (UACC-257 melanoma) | TGI (DMS 114 small cell lung) | TGI (RXF-631 renal) | TGI (EKVX NSCLC) | TGI (SF-268 CNS) | TGI (RPMI-8226 leukemia) | TGI (786-0 renal) | TGI (DMS 273 small cell lung) | TGI (COLO 205 colon) | TGI (SK-MEL-2 melanoma) | TGI (SK-MEL-5 melanoma) | TGI (A498 renal) | TGI (NCI-H226 lung) | TGI (CCRF-CEM leukemia) | TGI (U251 CNS) | TGI (NCI-H460 lung) | TGI (SN12C renal) | TGI (SNB-19 CNS) | TGI (RXF 393 renal) | TGI (SW-620 colon) | TGI (SF-539 CNS) | TGI (A549 NSCLC) | TGI (OVCAR-3 ovarian) | TGI (M14 melanoma) | TGI (OVCAR-4 ovarian) | TGI (NCI-H23 lung) | TGI (SNB-75 CNS) | TGI (LOX IMVI melanoma) | TGI (OVCAR-8 ovarian) | TGI (IGROV1 ovarian) | TGI (UACC-62 melanoma) | TGI (ACHN renal) | TGI (HCC-2998 colon) | TGI (LXFL 529 NSCLC)
